Reference: ChEMBL document CHEMBL3046781, “Resistance of Helicoverpa assulta (Guenée) (Lepidoptera: Noctuidae) to fenvalerate, phoxim and methomyl in China” (2009)

What was measured:
Format in all cases: functional
Helicoverpa assulta [1] = experiment: Insecticidal activity against sixth-instar larvae of Helicoverpa assulta AH1 at 39 to 12630 mg/l after 48 hr by chi-squared analysis
Helicoverpa assulta [2] = experiment: Insecticidal activity against sixth-instar larvae of Helicoverpa assulta YN2 at 39 to 12630 mg/l after 48 hr by chi-squared analysis
Helicoverpa assulta [3] = experiment: Resistance factor, ratio of LD50 for sixth-instar larvae of Helicoverpa assulta YN4 to LD50 for sixth-instar larvae of Helicoverpa assulta at 39 to 12630 mg/l
Helicoverpa assulta [4] = experiment: Insecticidal activity against sixth-instar larvae of Helicoverpa assulta YN1 at 39 to 12630 mg/l after 48 hr by chi-squared analysis
Helicoverpa assulta [5] = experiment: Insecticidal activity against sixth-instar larvae of Helicoverpa assulta SD2 at 39 to 12630 mg/l after 48 hr by chi-squared analysis
Helicoverpa assulta [6] = experiment: Resistance factor, ratio of LD50 for sixth-instar larvae of Helicoverpa assulta YN6 to LD50 for sixth-instar larvae of Helicoverpa assulta at 39 to 12630 mg/l
Helicoverpa assulta [7] = experiment: Resistance factor, ratio of LD50 for sixth-instar larvae of Helicoverpa assulta SD1 to LD50 for sixth-instar larvae of Helicoverpa assulta at 1.8 to 183360 mg/l
Helicoverpa assulta [8] = experiment: Resistance factor, ratio of LD50 for sixth-instar larvae of Helicoverpa assulta FJ1 to LD50 for sixth-instar larvae of Helicoverpa assulta at 1.8 to 183360 mg/l
Helicoverpa assulta [9] = experiment: Resistance factor, ratio of LD50 for sixth-instar larvae of Helicoverpa assulta YN2 to LD50 for sixth-instar larvae of Helicoverpa assulta at 1.8 to 183360 mg/l
Helicoverpa assulta [10] = experiment: Insecticidal activity against sixth-instar larvae of Helicoverpa assulta YN8 at 1.8 to 183360 mg/l after 48 hr by chi-squared analysis
Helicoverpa assulta [11] = experiment: Insecticidal activity against sixth-instar larvae of Helicoverpa assulta SD2 at 21 to 3390 mg/l after 48 hr by chi-squared analysis
Helicoverpa assulta [12] = experiment: Resistance factor, ratio of LD50 for sixth-instar larvae of Helicoverpa assulta GZ1 to LD50 for sixth-instar larvae of Helicoverpa assulta at 21 to 3390 mg/l
Helicoverpa assulta [13] = experiment: Insecticidal activity against sixth-instar larvae of Helicoverpa assulta FJ1 at 21 to 3390 mg/l after 48 hr by chi-squared analysis
Helicoverpa assulta [14] = experiment: Insecticidal activity against sixth-instar larvae of Helicoverpa assulta GZ4 at 21 to 3390 mg/l after 48 hr by chi-squared analysis

## CCOP(=S)(OCC)O/N=C(\C#N)c1ccccc1 [PHOXIM]
Helicoverpa assulta [1]
  LD90: 819 µg/g
Helicoverpa assulta [1]; Helicoverpa assulta, AH1, 48 h
  LD50: 119 mg/kg
Helicoverpa assulta [2]
  LD90: 107 µg/g
Helicoverpa assulta [2]; Helicoverpa assulta, YN2, 48 h
  LD50: 34.8 mg/kg
Helicoverpa assulta [3]
  Ratio: 16.9
Helicoverpa assulta [4]
  LD90: 57.3 µg/g
Helicoverpa assulta [4]; Helicoverpa assulta, YN1, 48 h
  LD50: 20.4 mg/kg
Helicoverpa assulta [5]
  LD90: 50.5 µg/g
Helicoverpa assulta [5]; Helicoverpa assulta, SD2, 48 h
  LD50: 17.2 mg/kg
Helicoverpa assulta [6]
  Ratio: 9.17

## CC(C)C(C(=O)OC(C#N)c1cccc(Oc2ccccc2)c1)c1ccc(Cl)cc1 (configuration not stated) [FENVALERATE]
Helicoverpa assulta [7]
  Ratio: 9.8
Helicoverpa assulta [8]
  Ratio: 9.01
Helicoverpa assulta [9]
  Ratio: 1313
Helicoverpa assulta [10]
  LD90: 9100 µg/g
Helicoverpa assulta [10]; Helicoverpa assulta, YN8, 48 h
  LD50: 2860 mg/kg

## CNC(=O)ON=C(C)SC [METHOMYL]
Helicoverpa assulta [11]
  LD90: 41.8 µg/g
Helicoverpa assulta [11]; Helicoverpa assulta, SD2, 48 h
  LD50: 8.92 mg/kg
Helicoverpa assulta [12]
  Ratio: 28.9
Helicoverpa assulta [13]
  LD90: 67.8 µg/g
Helicoverpa assulta [13]; Helicoverpa assulta, FJ1, 48 h
  LD50: 21.1 mg/kg
Helicoverpa assulta [14]
  LD90: 55.5 µg/g
Helicoverpa assulta [14]; Helicoverpa assulta, GZ4, 48 h
  LD50: 16.7 mg/kg
